The target in assay [1] is T1, Histone-lysine N-methyltransferase NSD3 (Homo sapiens) (UniProt Q9BZ95).
T1 sequence (whole entry): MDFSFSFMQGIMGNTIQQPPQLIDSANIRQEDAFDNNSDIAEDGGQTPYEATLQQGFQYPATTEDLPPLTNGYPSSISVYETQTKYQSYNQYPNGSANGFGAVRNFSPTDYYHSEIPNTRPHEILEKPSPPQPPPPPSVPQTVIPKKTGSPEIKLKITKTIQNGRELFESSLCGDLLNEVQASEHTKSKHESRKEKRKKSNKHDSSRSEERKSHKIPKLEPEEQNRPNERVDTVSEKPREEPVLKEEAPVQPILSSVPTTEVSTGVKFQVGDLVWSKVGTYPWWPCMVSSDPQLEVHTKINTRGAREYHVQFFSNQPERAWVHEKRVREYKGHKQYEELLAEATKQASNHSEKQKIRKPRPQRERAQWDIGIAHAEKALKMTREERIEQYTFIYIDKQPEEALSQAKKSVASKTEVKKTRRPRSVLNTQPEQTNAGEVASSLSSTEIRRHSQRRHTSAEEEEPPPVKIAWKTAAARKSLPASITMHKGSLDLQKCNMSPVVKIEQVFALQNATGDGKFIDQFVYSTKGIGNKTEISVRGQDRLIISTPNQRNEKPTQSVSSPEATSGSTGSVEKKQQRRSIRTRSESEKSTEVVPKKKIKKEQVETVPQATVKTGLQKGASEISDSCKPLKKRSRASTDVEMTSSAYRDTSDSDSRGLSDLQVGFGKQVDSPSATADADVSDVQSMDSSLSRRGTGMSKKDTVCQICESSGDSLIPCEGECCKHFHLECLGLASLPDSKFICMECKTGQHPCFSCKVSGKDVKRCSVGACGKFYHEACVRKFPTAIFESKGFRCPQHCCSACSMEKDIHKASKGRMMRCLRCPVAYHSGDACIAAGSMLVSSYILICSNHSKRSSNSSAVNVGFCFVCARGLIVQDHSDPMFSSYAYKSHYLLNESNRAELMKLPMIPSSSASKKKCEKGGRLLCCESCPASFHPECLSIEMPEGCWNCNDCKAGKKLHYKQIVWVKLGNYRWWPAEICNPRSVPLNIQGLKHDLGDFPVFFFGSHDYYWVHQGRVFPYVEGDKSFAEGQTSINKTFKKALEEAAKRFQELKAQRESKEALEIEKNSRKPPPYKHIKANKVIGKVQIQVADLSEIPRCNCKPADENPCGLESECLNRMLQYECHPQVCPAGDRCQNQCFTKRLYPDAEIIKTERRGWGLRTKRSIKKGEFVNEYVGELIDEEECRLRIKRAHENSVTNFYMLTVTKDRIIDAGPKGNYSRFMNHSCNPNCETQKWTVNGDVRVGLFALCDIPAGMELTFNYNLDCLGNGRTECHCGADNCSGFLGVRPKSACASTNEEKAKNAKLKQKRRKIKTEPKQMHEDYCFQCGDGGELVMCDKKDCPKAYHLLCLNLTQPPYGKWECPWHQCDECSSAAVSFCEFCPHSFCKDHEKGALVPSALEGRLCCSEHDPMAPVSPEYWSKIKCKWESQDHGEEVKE
Description: (§1) Induction of NSD3 degradation in human NCI-H1703 cells incubated for 72 hrs by Western blot analysis. The settings on record: dose 0.001-5 µM. In kind it is cell-based. For orientation: Immunoblotting shows a protein as a band on a membrane.

Assay [2] has as its target T2, Histone-lysine N-methyltransferase NSD3 (Homo sapiens, UniProt Q9BZ95).
T2 sequence (Q9BZ95 whole entry): T1 sequence (whole entry)
The assay is described as §1. In kind it is cell-based.

The target in assay [3] is T1, Histone-lysine N-methyltransferase NSD3 (Homo sapiens). The experiment in a line: Induction of NSD3 degradation in human A549 cells assessed as reduction of NSD3 protein at 7.5 measured after 48 hrs by Western blot analysis. In kind it is cell-based.
Assay [4] has the same target. Description: Induction of NSD3 degradation in human NCI-H1703 cells at 0.001 to 5 uM by Western blot analysis. In kind it is cell-based. The conditions noted are these: dose 0.001-5 µM, time 12-72 hrs, TDE = time-dependent effect.
Assay [5] concerns the target Histone-lysine N-methyltransferase, H3 lysine-36 specific (Homo sapiens) (UniProt Q96L73). The experiment in a line: Induction of NSD1 degradation in human NCI-H1703 cells at 3 to […] incubated for 72 hrs by Western blot analysis. In kind it is cell-based. The settings on record: dose 3-7.5 µM.
The target in assay [6] is T1, Histone-lysine N-methyltransferase NSD3 (Homo sapiens). The experiment in a line: Induction of NSD3 degradation in human NCI-H1703 cells assessed as reduction in H3K36me3 methylation incubated for 72 hrs by Western blot analysis. The conditions noted are these: dose 3-7.5 µM. In kind it is cell-based.
The subject of assay [7] is NCI-H1703. Description: Downregulation of c-Myc level in human NCI-H1703 cells at 3 to […] by Western blot analysis. In kind it is functional, cell-based. The settings on record: dose 3-7.5 µM.
Assay [8] relates to NCI-H1703. The experiment in a line: Induction of apoptosis in human NCI-H1703 cells assessed as decrease in MCL-1 protein expression at 5 to 10 uM by Western blot analysis. The settings on record: dose 5-10 µM. In kind it is functional, cell-based.
Assay [9] concerns NCI-H1703. The experiment in a line: Induction of apoptosis in human NCI-H1703 cells assessed as decrease in Bcl-XL protein expression at 5 to 10 uM by Western blot analysis. In kind it is functional, cell-based. The conditions noted are these: dose 5-10 µM.
In assay [10] the test system is NCI-H1703. The experiment in a line: Induction of apoptosis in human NCI-H1703 cells assessed as early apoptotic cells at 10 uM measured after 72 hrs by PI/Annexin-V staining based flow cytometry analysis (reference value: 1.47% ). In kind it is functional. A general note: In flow cytometry, cells or beads pass a laser one at a time.
In assay [11] the test system is NCI-H1703. The experiment in a line: Induction of apoptosis in human NCI-H1703 cells assessed as late apoptotic cells at 5 uM measured after 72 hrs by PI/Annexin-V staining based flow cytometry analysis (reference value: 3.00% ). In kind it is functional.
Assay [12] has as its system NCI-H1703. The experiment in a line: Antiproliferative activity against human NCI-H1703 cells incubated for 6 days by CCK-8 method. The settings on record: NCI-H1703, 144 h. In kind it is functional, cell-based.
The nature of assay [13]: Inhibition of clone formation in human NCI-H1703 cells at 3 uM incubated for 10 days with media replenishment for every 5 days by crystal violet staining based analysis relative to control. The settings on record: NCI-H1703, 240 h, time 10 day. In kind it is functional.
Assay [14] in a line: Downregulation of NSD3 level in human NCI-H1703 cells at 3 uM by measuring fold change by Western blot analysis relative to control. In kind it is functional.
Assay [15] can be described thus: Downregulation of Cyclin D1 level in human NCI-H1703 cells at 5 uM by measuring fold change by Western blot analysis relative to control. In kind it is functional.
The nature of assay [16]: Downregulation of c-Myc level in human NCI-H520 cells at […] by measuring fold change by Western blot analysis relative to control. In kind it is functional. The settings on record: dose 7.5 µM.
Assay [17] relates to NCI-H1703. Description: Induction of apoptosis in human NCI-H1703 cells assessed as decrease in MCL-1 protein expression at 5 uM by measuring fold change by Western blot analysis relative to control. In kind it is functional.
Assay [18] has as its system NCI-H1703. The experiment in a line: Induction of apoptosis in human NCI-H1703 cells assessed as decrease in MCL-1 protein expression at 10 uM by measuring fold change by Western blot analysis relative to control. In kind it is functional.
Assay [19] deals with NCI-H1703. The experiment in a line: Induction of apoptosis in human NCI-H1703 cells assessed as decrease in Bcl-XL protein expression at 5 uM by measuring fold change by Western blot analysis relative to control. In kind it is functional.
A further assay relates to NCI-H520. The experiment in a line: Induction of apoptosis in human NCI-H520 cells assessed as decrease in MCL-1 protein expression at […] by measuring fold change by Western blot analysis relative to control. The settings on record: dose 7.5 µM. In kind it is functional.

Each structure is given as a SMILES string. pEC50, pIC50: −log10 of the molar value. Active and inactive are the calls of the source. The rule behind the calls is not given here.

Histone-lysine N-methyltransferase, H3 lysine-36 specific (Homo sapiens), sequence (Q96L73 whole entry): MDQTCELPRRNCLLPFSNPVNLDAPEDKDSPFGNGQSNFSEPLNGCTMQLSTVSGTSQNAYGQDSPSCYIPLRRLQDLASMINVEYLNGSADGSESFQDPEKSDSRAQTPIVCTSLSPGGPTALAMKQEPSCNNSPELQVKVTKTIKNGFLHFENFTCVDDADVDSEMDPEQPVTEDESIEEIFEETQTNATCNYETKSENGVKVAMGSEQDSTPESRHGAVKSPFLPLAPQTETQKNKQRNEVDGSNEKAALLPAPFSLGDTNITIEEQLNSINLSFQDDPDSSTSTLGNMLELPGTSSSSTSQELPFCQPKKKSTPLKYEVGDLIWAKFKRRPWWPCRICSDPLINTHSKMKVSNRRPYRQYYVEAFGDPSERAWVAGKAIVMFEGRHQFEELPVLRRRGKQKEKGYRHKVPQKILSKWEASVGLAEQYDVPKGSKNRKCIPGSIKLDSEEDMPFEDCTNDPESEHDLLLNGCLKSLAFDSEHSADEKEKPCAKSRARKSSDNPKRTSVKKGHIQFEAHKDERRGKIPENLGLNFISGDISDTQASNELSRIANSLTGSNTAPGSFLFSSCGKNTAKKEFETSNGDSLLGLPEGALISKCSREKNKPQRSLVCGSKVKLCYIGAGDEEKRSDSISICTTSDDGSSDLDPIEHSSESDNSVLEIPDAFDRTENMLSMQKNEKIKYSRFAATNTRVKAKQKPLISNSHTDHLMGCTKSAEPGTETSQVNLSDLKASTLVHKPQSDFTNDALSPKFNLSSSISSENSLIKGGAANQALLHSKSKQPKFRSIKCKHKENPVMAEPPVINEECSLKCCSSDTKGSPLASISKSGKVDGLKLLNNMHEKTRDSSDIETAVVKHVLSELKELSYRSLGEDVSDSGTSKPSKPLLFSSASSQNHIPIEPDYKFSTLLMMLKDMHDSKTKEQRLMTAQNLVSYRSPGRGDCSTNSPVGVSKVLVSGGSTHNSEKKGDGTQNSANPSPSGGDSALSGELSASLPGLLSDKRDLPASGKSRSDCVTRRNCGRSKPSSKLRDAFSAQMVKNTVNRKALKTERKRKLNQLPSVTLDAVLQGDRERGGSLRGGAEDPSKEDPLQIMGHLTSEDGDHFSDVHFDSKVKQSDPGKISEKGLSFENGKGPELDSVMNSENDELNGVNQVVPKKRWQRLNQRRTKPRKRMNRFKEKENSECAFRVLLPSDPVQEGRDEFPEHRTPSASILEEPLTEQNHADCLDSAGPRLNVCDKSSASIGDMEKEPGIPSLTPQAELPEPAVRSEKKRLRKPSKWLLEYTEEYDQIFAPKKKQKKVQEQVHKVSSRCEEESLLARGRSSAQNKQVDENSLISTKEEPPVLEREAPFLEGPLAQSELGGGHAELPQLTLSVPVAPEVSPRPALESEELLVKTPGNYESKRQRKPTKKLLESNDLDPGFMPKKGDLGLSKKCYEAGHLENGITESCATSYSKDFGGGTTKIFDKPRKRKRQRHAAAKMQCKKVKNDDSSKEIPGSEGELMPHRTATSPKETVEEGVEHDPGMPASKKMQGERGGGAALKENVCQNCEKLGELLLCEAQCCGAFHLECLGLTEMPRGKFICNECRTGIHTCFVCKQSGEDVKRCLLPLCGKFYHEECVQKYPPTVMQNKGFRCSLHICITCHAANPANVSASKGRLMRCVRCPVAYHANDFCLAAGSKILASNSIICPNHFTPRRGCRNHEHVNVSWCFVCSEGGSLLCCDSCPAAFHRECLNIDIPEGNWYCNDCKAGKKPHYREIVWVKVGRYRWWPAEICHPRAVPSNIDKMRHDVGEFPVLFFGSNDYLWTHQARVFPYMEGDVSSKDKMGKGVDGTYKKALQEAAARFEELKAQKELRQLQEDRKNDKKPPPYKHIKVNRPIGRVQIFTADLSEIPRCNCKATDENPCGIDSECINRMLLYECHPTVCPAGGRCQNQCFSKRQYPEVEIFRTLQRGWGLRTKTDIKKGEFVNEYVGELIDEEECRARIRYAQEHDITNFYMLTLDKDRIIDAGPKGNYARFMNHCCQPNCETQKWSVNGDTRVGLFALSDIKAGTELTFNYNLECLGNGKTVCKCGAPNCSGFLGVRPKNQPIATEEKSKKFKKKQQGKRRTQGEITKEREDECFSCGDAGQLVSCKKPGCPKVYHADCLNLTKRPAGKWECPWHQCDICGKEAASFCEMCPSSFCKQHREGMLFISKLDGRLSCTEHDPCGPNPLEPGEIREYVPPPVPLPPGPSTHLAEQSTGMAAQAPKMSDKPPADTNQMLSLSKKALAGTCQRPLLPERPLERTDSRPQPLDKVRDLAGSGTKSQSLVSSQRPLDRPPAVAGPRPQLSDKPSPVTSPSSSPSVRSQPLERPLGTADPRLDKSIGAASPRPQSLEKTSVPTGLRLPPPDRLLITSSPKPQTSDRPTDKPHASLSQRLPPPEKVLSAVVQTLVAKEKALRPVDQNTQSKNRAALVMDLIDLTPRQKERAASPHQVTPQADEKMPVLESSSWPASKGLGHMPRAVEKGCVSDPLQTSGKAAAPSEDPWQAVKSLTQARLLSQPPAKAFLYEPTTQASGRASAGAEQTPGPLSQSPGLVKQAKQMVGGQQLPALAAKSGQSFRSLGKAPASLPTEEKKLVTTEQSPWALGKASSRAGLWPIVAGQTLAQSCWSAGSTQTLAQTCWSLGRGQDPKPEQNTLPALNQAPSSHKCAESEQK

With `Cc1cc(CNCCCCCCCCCCC(=O)N[C@H](C(=O)N2C[C@H](O)C[C@H]2C(=O)N[C@@H](C)c2ccc(-c3scnc3C)cc2)C(C)(C)C)cc(C)c1-c1ncn(C)c1-c1ccnc2cc(F)ccc12`, the Activity result is “Dose-Dependent Effect” in assay [1]; “Tde” in assay [4]; “Dose-Dependent Effect” in assay [6]; 12.8% in the assay with NCI-H1703 [10]; 6.08% in the assay on NCI-H1703 [11]. Moreover, the pEC50 (in general, the negative decadic logarithm of the EC50, by convention in mol/L) in assay [2] is 5.84. In addition, the result (in [3]; in the assay on NCI-H1703 [7]; in the assay on NCI-H1703 [8]; in the assay with NCI-H1703 [9]) was Active. In addition, in [5], the result was inactive. The pIC50 (as a rule, the IC50 on a negative log10 scale, so that one unit is a factor of ten) in the assay on NCI-H1703 [12] is 5.56. In [13], the inhibition (commonly the change of the read-out against control, counted positive when it falls) at 3 µM was 100%. Also, the “fold change (FC)” value in [14] turned out to be 0.97; in assay [15], 0.69; in assay [16], 0.78; in the assay on NCI-H1703 [17], 0.8; in the assay on NCI-H1703 [18] it was 0.53; in the assay on NCI-H1703 [19], 1.1. In addition, in the assay with NCI-H520, the “fold change (FC)” value is 0.61.
